Here are results for 1 compound from patent US6107070A, “Human manganese superoxide dismutase proteins” (University of Florida, priority 1998, dated 2000).

The test deals with T1, human manganese superoxide dismutase (hMn SOD) variant H30N (His 30 replaced by Asn) (Homo sapiens, UniProt P04179, H54N).
T1 construct: as a mature protein tagged with an extra Met at the amino terminus; made in house
T1 sequence (P04179 25-222 H54N): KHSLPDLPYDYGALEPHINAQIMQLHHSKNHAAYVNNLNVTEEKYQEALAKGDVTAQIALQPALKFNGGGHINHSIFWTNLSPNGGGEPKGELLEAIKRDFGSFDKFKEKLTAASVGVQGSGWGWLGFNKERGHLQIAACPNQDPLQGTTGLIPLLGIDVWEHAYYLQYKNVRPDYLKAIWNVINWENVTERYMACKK
The test is described as follows: Disproportionation of superoxide by H30N hMnSOD, stopped-flow, 20° C. It counts as biochemical. As to conditions: pH 9.6, 20° C. The procedure: Experiments were based on the stabilization of KO2 in aprotic solvent and the subsequent large dilution of this solution by an aqueous solution of enzyme in a stopped-flow apparatus, as described by McClune and Fee (1978). KO2 was dissolved in a mixture of dimethyl sulfoxide and […] (2:1 by volume; Aldrich, spectrophotometric grade) with solubility of KO2 enhanced with 18-crown-6 (Valentine and Curtis, 1975). The stopped-flow spectrophotometer (Kinetic Instruments, Ann Arbor, Mich.) was capable of efficient mixing of this solution with an acqueous solution of enzyme in buffer with a dead time between 1.5 and 2.0 ms. One drive syringe (capacity 50 μl) contained the aprotic solution of O2. This was diluted fifty-fold by the contents of a second syringe (capacity 2.5 ml) which contained enzyme, EDTA, and buffer. The decay of superoxide in initial velocity experiments and progress curves was monitored by its absorption at 250 to 300 nm. Stopped-flow experiments were carried out at […]. Four or more kinetic traces were averaged to reduce noise. Steady-state parameters were obtained by least-squares analysis of such data (Leatherbarrow (1987) "Enzfitter: a nonlinear regression data analysis program for the IBM PC" Elsevier BIOSOFT, Cambridge).
In the present study, several novel hMnSOD proteins containing substitutions of His 30 (referring to the amino acid sequence of SEQ ID NO:2) were prepared by PCR site directed mutagenesis and purified by column chromatography, as described in the Materials and Methods section above, and as also described by Hsu et al. (1996) J. Biol. Chem. 271: 1768; and Hsieh et al. (1998) Biochemistry 37: 4731. In particular, His 30 was substituted with each of Ala, Asn, Ser and Gln. The resulting novel hMnSOD proteins containing a His 30 substitution were then assayed for enzymatic activity and product inhibition at 20° C. by measuring the absorbance of superoxide at 250 nm using stopped-flow spectrophotometry, as described above in the Materials and Methods section. […]

As to `[O]O` [superoxide], where the note is “Table 4”, the kcat came to 2.9 ms^.1 and the “kcat /Km” value is reported as 91 μM^.1 S^.1. For the same compound, under “Table 5”, the “ko /[E] (rate constant for the zero-order region of catalysis)” value is 1,300 S^.1.
